The target in one assay is Butyrylcholinesterase (Rattus norvegicus, UniProt Q9JKC1).
The next assay has as its target T1, Acetylcholinesterase (Rattus norvegicus, UniProt P37136).
T1 sequence (P37136 whole entry): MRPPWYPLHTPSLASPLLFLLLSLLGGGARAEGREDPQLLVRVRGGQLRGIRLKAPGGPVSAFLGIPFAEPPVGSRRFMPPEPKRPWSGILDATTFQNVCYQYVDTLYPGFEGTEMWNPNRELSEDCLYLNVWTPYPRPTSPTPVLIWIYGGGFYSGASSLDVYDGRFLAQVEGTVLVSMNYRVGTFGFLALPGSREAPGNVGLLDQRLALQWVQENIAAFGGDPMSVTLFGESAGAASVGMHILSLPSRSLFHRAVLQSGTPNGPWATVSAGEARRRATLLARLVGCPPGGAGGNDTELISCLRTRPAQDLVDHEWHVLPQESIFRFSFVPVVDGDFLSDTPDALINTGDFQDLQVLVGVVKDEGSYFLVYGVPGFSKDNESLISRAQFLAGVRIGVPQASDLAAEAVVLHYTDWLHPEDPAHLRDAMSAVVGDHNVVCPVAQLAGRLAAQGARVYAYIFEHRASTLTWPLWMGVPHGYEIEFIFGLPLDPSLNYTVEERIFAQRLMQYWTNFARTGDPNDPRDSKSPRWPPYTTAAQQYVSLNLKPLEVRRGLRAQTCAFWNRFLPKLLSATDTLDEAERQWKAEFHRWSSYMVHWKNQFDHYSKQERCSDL
In words: biochemical.

Some results are limits rather than exact numbers.

Our source for the IC50 values is ChEMBL document CHEMBL1132438, “Heterodimeric tacrine-based acetylcholinesterase inhibitors: investigating ligand-peripheral site interactions” (J Med Chem, 1999).

Butyrylcholinesterase, sequence (Q9JKC1 whole entry): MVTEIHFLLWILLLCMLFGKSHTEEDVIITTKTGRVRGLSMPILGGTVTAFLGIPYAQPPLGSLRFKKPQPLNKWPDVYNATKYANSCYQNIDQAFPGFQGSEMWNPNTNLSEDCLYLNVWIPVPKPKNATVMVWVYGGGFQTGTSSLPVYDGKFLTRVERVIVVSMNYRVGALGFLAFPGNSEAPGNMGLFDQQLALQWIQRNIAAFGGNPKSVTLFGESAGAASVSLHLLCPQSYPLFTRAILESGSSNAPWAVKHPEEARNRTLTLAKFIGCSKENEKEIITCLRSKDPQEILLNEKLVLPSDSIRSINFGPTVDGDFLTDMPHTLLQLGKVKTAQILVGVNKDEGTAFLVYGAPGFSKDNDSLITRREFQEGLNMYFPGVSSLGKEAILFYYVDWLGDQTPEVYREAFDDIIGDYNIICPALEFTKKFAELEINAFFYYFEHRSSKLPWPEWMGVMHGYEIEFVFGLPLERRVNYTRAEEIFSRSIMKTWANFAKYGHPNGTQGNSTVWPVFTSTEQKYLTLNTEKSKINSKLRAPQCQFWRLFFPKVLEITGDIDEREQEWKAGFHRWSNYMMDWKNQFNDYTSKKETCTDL
Description for Acetylcholinesterase: Inhibition of acetylcholinesterase activity in rat cerebral cortex homogenate, in the presence of a specific butyrylcholinesterase (BChE) inhibitor; ethopropazine
Description for Butyrylcholinesterase: Inhibition of rat serum butyrylcholinesterase, in the presence of a specific AChE inhibitor; BW284c51

In general, IC50 refers to the concentration needed to halve the response being measured. A higher IC50 goes with lower potency. Turning to `CN(C)CCCCCCCCCCCCNc1c2c(nc3ccccc13)CCCC2`, the IC50 at Butyrylcholinesterase turned out to be 695 nM; on Acetylcholinesterase it was 264 nM. In the same order, the values of `CN(C)CCCCCCCCCCNc1c2c(nc3ccccc13)CCCC2` are 581 nM and 45 nM. Turning to `NCCCCCCCNc1c2c(nc3ccccc13)CCCC2`, the IC50 against Butyrylcholinesterase came out at 357 nM; against Acetylcholinesterase, 319 nM. In the same order, the values of `NCCCCCCCCCCNc1c2c(nc3ccccc13)CCCC2` are 682 nM and 147 nM. Consider `CN(C)CCCCCCCCNc1c2c(nc3ccccc13)CCCC2`, for which the results for the IC50 at Butyrylcholinesterase and against Acetylcholinesterase were 170 nM and 47 nM, respectively. In the same order, the values of `c1ccc2c(NCCCCCCCNc3ccncc3)c3c(nc2c1)CCCC3` are 302 nM and 12.8 nM. Take `c1ccc2c(NCCCCCCCCNc3c4c(nc5ccccc35)CCCC4)ccnc2c1`: the results for the IC50 against Butyrylcholinesterase and against Acetylcholinesterase were 126 nM and 8.8 nM, respectively. `CN(C)CCCCCCCCCNc1c2c(nc3ccccc13)CCCC2`: the half-maximal inhibitory concentration (IC50) at Butyrylcholinesterase was found to be 237 nM; on Acetylcholinesterase, 71 nM. The matching figures for `c1ccc2c(NCCCCCCCCCCCCNc3ccncc3)c3c(nc2c1)CCCC3`: 377 nM and 261 nM. In the same order, the values of `CN(C)CCCCCCCNc1c2c(nc3ccccc13)CCCC2` are 143 nM and 52 nM. The matching figures for `c1ccc2c(NCCCCCCCCCNc3ccncc3)c3c(nc2c1)CCCC3`: 200 nM and 83.6 nM. `c1ccc2c(NCCCCCCCCNc3ccncc3)c3c(nc2c1)CCCC3`: the IC50 on Butyrylcholinesterase was 157 nM; at Acetylcholinesterase, 13.6 nM. The matching figures for `c1ccc2c(NCCCCCCCCCCNc3ccncc3)c3c(nc2c1)CCCC3`: 427 nM and 176 nM.

As for `c1ccc2c(NCCCCCCCCCNc3c4c(nc5ccccc35)CCCC4)ccnc2c1`, the IC50 at Butyrylcholinesterase came to 156 nM; against Acetylcholinesterase it was 38.7 nM. The matching figures for `NCCCCCCCCCCCCNc1c2c(nc3ccccc13)CCCC2`: 791 nM and 180 nM. In the same order, the values of `NCCCCCCCCNc1c2c(nc3ccccc13)CCCC2` are 202 nM and 89.4 nM. Turning to `c1ccc2c(NCCCCCCCNc3c4c(nc5ccccc35)CCCC4)ccnc2c1`, the IC50 against Butyrylcholinesterase was found to be 110 nM; on Acetylcholinesterase, 10.1 nM.

Take `NCCCCCCCCCNc1c2c(nc3ccccc13)CCCC2`: the IC50 was 687 nM on Butyrylcholinesterase and 131 nM against Acetylcholinesterase. Consider `Cc1cccc2c(NCCCCCCCNc3c4c(nc5ccccc35)CCCC4)c3c(nc12)CCCC3`, for which the IC50 on Acetylcholinesterase came to 1.5 nM. For `Cc1cccc2c(NCCCCCCCCNc3c4c(nc5ccccc35)CCCC4)c3c(nc12)CCCC3`, the IC50 against Butyrylcholinesterase is 105 nM; against Acetylcholinesterase it was 7.8 nM.

The compound `Nc1ccncc1` [DALFAMPRIDINE] gave an IC50 on Acetylcholinesterase above 500000 nM. In the case of `Nc1ccnc2ccccc12` [QUINOLIN-4-AMINE], the midpoint of inhibition against Acetylcholinesterase, the IC50, lay at 50700 nM.
